Test: xn = mol fraction of the nth substance listed
Conditions: 101 kPa, Liquid; for speed of sound: Single path-length method

COC(C)(C)C [2-methoxy-2-methylpropane] + CC(C)CC(C)(C)C
Conditions	mass density [kg/m3]	speed of sound [m/s]
305.65 K, x1 = 0.049	683.001	–
305.65 K, x1 = 0.091	684.244	–
305.65 K, x1 = 0.197	687.643	–
305.65 K, x1 = 0.296	691.083	–
305.65 K, x1 = 0.394	694.818	–
305.65 K, x1 = 0.507	699.54	–
305.65 K, x1 = 0.603	703.873	–
305.65 K, x1 = 0.7	708.82	–
305.65 K, x1 = 0.79	713.83	–
305.65 K, x1 = 0.898	720.394	–
305.65 K, x1 = 0.951	723.998	–
305.65 K, x1 = 1	726.444	–
308.15 K, x1 = 0.049	680.9	1037.7
308.15 K, x1 = 0.091	682.124	1035
308.15 K, x1 = 0.197	685.47	1029
308.15 K, x1 = 0.296	688.864	1022.8
308.15 K, x1 = 0.394	692.544	1017.6
308.15 K, x1 = 0.507	697.225	1011
308.15 K, x1 = 0.603	701.481	1006.8
308.15 K, x1 = 0.7	706.365	1002
308.15 K, x1 = 0.79	711.31	998.04
308.15 K, x1 = 0.898	717.802	993.91
308.15 K, x1 = 0.951	721.377	992.13
308.15 K, x1 = 1	723.763	991.34
310.65 K, x1 = 0.049	678.79	1027.3
310.65 K, x1 = 0.091	679.994	1024.6
310.65 K, x1 = 0.197	683.293	1018.5
310.65 K, x1 = 0.296	686.637	1012.2
310.65 K, x1 = 0.394	690.27	1006.9
310.65 K, x1 = 0.507	694.875	1000.2
310.65 K, x1 = 0.603	699.077	995.9
310.65 K, x1 = 0.7	703.915	991.12
310.65 K, x1 = 0.79	708.777	986.9
310.65 K, x1 = 0.898	715.208	982.76
310.65 K, x1 = 0.951	718.741	981.15
310.65 K, x1 = 1	721.069	980
313.15 K, x1 = 0.049	676.674	1017
313.15 K, x1 = 0.091	677.857	1014.4
313.15 K, x1 = 0.197	681.108	1008
313.15 K, x1 = 0.296	684.416	1001.9
313.15 K, x1 = 0.394	687.984	996.15
313.15 K, x1 = 0.507	692.513	989.48
313.15 K, x1 = 0.603	696.659	984.99
313.15 K, x1 = 0.7	701.432	980.08
313.15 K, x1 = 0.79	706.232	975.76
313.15 K, x1 = 0.898	712.585	971.49
313.15 K, x1 = 0.951	716.075	969.68
313.15 K, x1 = 1	718.357	968.63
315.65 K, x1 = 0.049	674.551	1006.8
315.65 K, x1 = 0.091	675.716	1004
315.65 K, x1 = 0.197	678.915	997.54
315.65 K, x1 = 0.296	682.172	991.38
315.65 K, x1 = 0.394	685.682	985.48
315.65 K, x1 = 0.507	690.141	978.73
315.65 K, x1 = 0.603	694.229	974.09
315.65 K, x1 = 0.7	698.938	969.06
315.65 K, x1 = 0.79	703.665	964.56
315.65 K, x1 = 0.898	709.948	960.23
315.65 K, x1 = 0.951	713.392	958.31
315.65 K, x1 = 1	715.636	957.31
318.15 K, x1 = 0.049	672.418	996.53
318.15 K, x1 = 0.091	673.564	993.65
318.15 K, x1 = 0.197	676.709	987.14
318.15 K, x1 = 0.296	679.911	980.84
318.15 K, x1 = 0.394	683.366	974.83
318.15 K, x1 = 0.507	687.763	968.07
318.15 K, x1 = 0.603	691.788	963.2
318.15 K, x1 = 0.7	696.427	958.04
318.15 K, x1 = 0.79	701.097	953.55
318.15 K, x1 = 0.898	707.292	949.03
318.15 K, x1 = 0.951	710.693	947.02
318.15 K, x1 = 1	712.897	946.03
320.65 K, x1 = 0.049	670.282	986.33
320.65 K, x1 = 0.091	671.436	983.34
320.65 K, x1 = 0.197	674.493	976.73
320.65 K, x1 = 0.296	677.642	970.3
320.65 K, x1 = 0.394	681.043	964.2
320.65 K, x1 = 0.507	685.37	957.34
320.65 K, x1 = 0.603	689.334	952.36
320.65 K, x1 = 0.7	693.905	947.08
320.65 K, x1 = 0.79	698.504	942.46
320.65 K, x1 = 0.898	704.622	937.81
320.65 K, x1 = 0.951	707.978	935.72
320.65 K, x1 = 1	710.141	934.76
323.15 K, x1 = 0.049	668.138	976.18
323.15 K, x1 = 0.091	669.267	973.04
323.15 K, x1 = 0.197	672.267	966.34
323.15 K, x1 = 0.296	675.361	959.8
323.15 K, x1 = 0.394	678.707	953.63
323.15 K, x1 = 0.507	682.969	946.69
323.15 K, x1 = 0.603	686.867	941.57
323.15 K, x1 = 0.7	691.375	936.24
323.15 K, x1 = 0.79	695.909	931.51
323.15 K, x1 = 0.898	701.938	926.65
323.15 K, x1 = 0.951	705.25	924.5
323.15 K, x1 = 1	707.381	923.46

From the NIST ThermoML archive (doi:10.1007/s10765-007-0223-x)
